Test results from patent US7825103B2, “Pyrimidine nucleoside compound or its salt” (Taiho Pharmaceutical Co., Ltd., priority 2005, dated 2010).

Columns and labels:
[1] = system: Human large intestine cancer cell strain KM20C; test: Anti-tumor test using nude mouse subcutaneous implantation system with peroral administration of CNDAC compound; assay type: in vivo, BALB/cA Jcl-nu mice; details: Mus musculus, sc, 696 h; peroral once a day for 14 days, dose equivalent by mole to 18 mg/kg/day of CNDAC; day 29 after grouping; KM20C subcutaneous implant; read-out: IR (%) tumor growth inhibition rate
Description: (§1) Human large intestine cancer cell strain KM20C was subcutaneously subcultured in BALB/cA Jcl-nu mice (CLEA Japan, Inc.), and the resultant cancer tissues were cut into 2 mm dice fragments. Each of the fragments was subcutaneously implanted to a 6-week-old BALB/cA Jcl-nu mouse at the back thereof. On day 14 after the implantation, large and small diameters of the resultant tumor were measured, and the volume of the tumor was calculated by the following equation. The mice were grouped (6 animals per group) so that the groups were roughly equal in terms of average tumor volume. Vt=½(Vl)×(Vs)^2 (Equation 1) In the equation, Vt represents tumor volume, Vl represents large diameter of tumor, and Vs represents small diameter of tumor.
Each CNDAC compound was dissolved or suspended in 0.5% hydroxypropyl methyl cellulose solution which had been buffered with 100 mM citrate buffer (pH 6.0). From the next day after grouping, the mixture was perorally administered to each mouse once a day for consecutive 14 days in a dose which is equivalent, by mole, to 18 mg/kg/day of CNDAC.
On day 29 after the grouping, large and small diameters of the subcutaneously implanted tumor of each mouse were measured, and relative tumor volume (RTV) and inhibition rate (IR) were calculated by the following equations to evaluate anti-tumor effect of the compound. RTV=Vt1/Vt2 (Equation 2) In the equation, RTV represents ratio of tumor volume, Vt1 represents tumor volume measured on the day of determination, and […]. IR(%)=[1−(RTVtest)/(RTVcont)]×100 (Equation 3) In the equation, IR represents tumor growth inhibition rate, RTVtest represents mean RTV value of a drug-administered group, and RTVcont represents mean RTV value of a non-treatment group.

[2] = system: Human large intestine cancer cell strain KM20C; test: Anti-tumor test using nude mouse subcutaneous implantation system, peroral administration in an equitoxic dose; assay type: in vivo, BALB/cA Jcl-nu mice; details: peroral once a day for 14 days, FIG. 1; for deletion of tumor: 6 animals per group
Description: as §1, with “15” for “14”, “through use of” for “by”, “the” for “the groups were roughly equal in terms of”, “volume was common to each group.” for “volume.”, “5)” for “1)”
CNDAC, P-CNDAC, or Compound 19 was dissolved or suspended in 0.5% hydroxypropyl methyl cellulose solution which had been buffered with 100 mM citrate buffer (pH 5.0). From the next day of grouping, the mixture was perorally administered to each mouse once a day for consecutive 14 days in an equitoxic dose.
Large and small diameters of the subcutaneously implanted tumor of each mouse were measured twice a week, and relative tumor volume (RTV) was calculated as an index indicating tumor growth through use of the following equations to evaluate anti-tumor effect of the compound. RTV=Vt1/Vt2 (Equation 6) In the equation, RTV represents ratio of tumor volume, Vt1 represents tumor volume measured on the day of determination, and Vt2 represents tumor volume measured on the day of grouping.

Structure (SMILES)	inhibition in vivo at 18 mg/kg/day [1]	deletion of tumor [2]	inhibition in vivo [1]	change in tumor volume (RTV) [2]	melting point
N#C[C@H]1[C@H](O)[C@@H](CO)O[C@H]1n1ccc(N)nc1=O [CNDAC, 2′-cyano-2′-deoxy-1-β-D-arabinofuranosylcytosine, reference compound]	46%	no deletion of tumor	–	–	–
CC(C)C(C)(C)[Si](C)(C)O[C@H]1[C@H](C#N)[C@H](n2ccc(N)nc2=O)O[C@@H]1CO [Example 19, 3′-O-Dimethylthexylsilyl-2′-cyano-2′-deoxy-1-β-D-arabinofuranosylcytosine]	–	deletes tumor in three cases in total six cases	89%	greatly reduces the tumor volume as compared with CNDAC and P-CNDAC	159 to 161 °C
CCCCCCCCCCCCCCCC(=O)Nc1ccn([C@@H]2O[C@H](CO)[C@@H](O)[C@@H]2C#N)c(=O)n1 [P-CNDAC, 4-N-palmitoyl-2′-cyano-2′-deoxy-1-β-D-arabinofuranosylcytosine, reference compound]	–	no deletion of tumor	–	–	–
